Test results taken from ChEMBL document CHEMBL1148423, “Estrogen receptor ligands. Part 5: The SAR of dihydrobenzoxathiins containing modified basic side chains” (Bioorg Med Chem Lett, 2004).

Assays:
MCF7 = assay: Inhibition of MCF-7 cancer cell proliferation; assay type: functional, cell-based; conditions: Homo sapiens
Estrogen receptor = biological target: T1, Estrogen receptor (Homo sapiens, UniProt P03372)
T1 sequence (P03372 whole entry): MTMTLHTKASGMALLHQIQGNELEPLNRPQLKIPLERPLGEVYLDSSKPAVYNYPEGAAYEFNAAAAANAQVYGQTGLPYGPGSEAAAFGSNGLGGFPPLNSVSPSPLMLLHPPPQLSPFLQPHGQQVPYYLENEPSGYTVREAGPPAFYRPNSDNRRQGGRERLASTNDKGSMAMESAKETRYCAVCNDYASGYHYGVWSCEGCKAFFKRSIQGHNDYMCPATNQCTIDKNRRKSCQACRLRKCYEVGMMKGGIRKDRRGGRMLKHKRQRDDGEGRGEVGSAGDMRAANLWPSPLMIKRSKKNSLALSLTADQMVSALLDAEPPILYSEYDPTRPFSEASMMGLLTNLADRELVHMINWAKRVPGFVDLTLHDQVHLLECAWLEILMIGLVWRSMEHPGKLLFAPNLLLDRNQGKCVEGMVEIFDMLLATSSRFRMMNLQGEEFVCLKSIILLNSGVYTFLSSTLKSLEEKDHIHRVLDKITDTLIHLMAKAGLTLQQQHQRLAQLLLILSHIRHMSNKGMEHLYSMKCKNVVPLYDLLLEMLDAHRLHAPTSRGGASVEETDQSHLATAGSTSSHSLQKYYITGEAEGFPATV
Description: Binding affinity for human estrogen receptor alpha

Estrogen receptor beta = Estrogen receptor beta (Homo sapiens, UniProt Q92731)
Chain of Estrogen receptor beta (Q92731 whole entry): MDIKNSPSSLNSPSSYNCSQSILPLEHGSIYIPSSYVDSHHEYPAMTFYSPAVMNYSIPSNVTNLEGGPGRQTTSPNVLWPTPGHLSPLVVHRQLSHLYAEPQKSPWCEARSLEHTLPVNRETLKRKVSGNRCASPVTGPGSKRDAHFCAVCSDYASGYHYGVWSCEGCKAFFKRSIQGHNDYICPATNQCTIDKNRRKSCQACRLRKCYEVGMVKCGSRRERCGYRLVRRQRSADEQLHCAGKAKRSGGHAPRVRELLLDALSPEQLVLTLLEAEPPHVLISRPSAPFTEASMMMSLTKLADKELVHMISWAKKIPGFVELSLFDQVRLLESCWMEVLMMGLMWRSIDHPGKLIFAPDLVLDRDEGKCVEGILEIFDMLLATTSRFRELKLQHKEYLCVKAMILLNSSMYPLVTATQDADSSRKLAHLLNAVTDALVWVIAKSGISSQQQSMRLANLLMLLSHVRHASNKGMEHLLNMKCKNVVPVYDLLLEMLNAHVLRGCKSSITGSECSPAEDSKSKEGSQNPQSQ
Description: Binding affinity for human estrogen receptor beta

SMILES	IC50 (MCF7) [nM]	IC50 (Estrogen receptor) [nM]	IC50 (Estrogen receptor beta) [nM]
CCN1CCN(c2ccc([C@@H]3Oc4ccc(O)cc4S[C@@H]3c3ccc(O)cc3)cc2)CC1	1.4	1	27
CN1CCCN(c2ccc([C@@H]3Oc4ccc(O)cc4S[C@@H]3c3ccc(O)cc3)cc2)CC1	29	3.6	365
CN1CCN(c2ccc([C@@H]3Oc4ccc(O)cc4S[C@@H]3c3ccc(O)cc3)cc2)CC1	3.4	1	59
Oc1ccc([C@H]2Sc3cc(O)ccc3O[C@H]2CCCN2CCCCC2)cc1	1.2	0.7	27
Oc1ccc([C@H]2Sc3cc(O)ccc3O[C@H]2c2ccc(COCCN3CCCCC3)cc2)cc1	14.6	2.3	259
Oc1ccc([C@H]2Sc3cc(O)ccc3O[C@H]2c2ccc(CCCN3CCCCC3)cc2)cc1	6.7	1.4	186
Oc1ccc([C@H]2Sc3cc(O)ccc3O[C@H]2c2ccc(C3CCNCC3)cc2)cc1	1.9	1.7	115
Oc1ccc([C@H]2Sc3cc(O)ccc3O[C@H]2c2ccc(N3CCNCC3)cc2)cc1	2.8	4.4	186
Oc1ccc([C@H]2Sc3cc(O)ccc3O[C@H]2c2ccc(C3=CCNCC3)cc2)cc1	0.9	1.4	31
Oc1ccc([C@H]2Sc3cc(O)ccc3O[C@H]2c2ccc(CN3CCCCC3)cc2)cc1		155	4370
Oc1ccc([C@H]2Sc3cc(O)ccc3O[C@H]2c2ccc(N3CCCNCC3)cc2)cc1	28	3.6	161
